The record followed here is US8975441B2, “Process for preparing 2.2-dibromomalonamide” (Dow Global Technologies LLC, priority 2009, dated 2015).

The format of this data set is physicochemical. The note with it: pH 7. The text has this:
It has been discovered and is believed that the alkali earth metal base, which in some embodiments is part of the nitrile-amide-conversion composition, acts at basic pH values (i.e., at pH values greater than pH 7.0) to undesirably promote degradation of 2,2-dibromo-3-cyanoacetamide to undesirable products. […] As pH of the nitrile-amide-conversion composition becomes increasingly basic, the alkali earth metal base degrades increasing amounts of 2,2-dibromo-3-cyanoacetamide. This base-promoted degradation of 2,2-dibromo-3-cyanoacetamide is especially prevalent at pH 9.0 and higher. The invention process advantageously maintains pH of the reaction mixture in situ during conversion of 2,2-dibromo-3-cyanoacetamide to 2,2-dibromomalonamide in a pH range that minimizes or prevents base-promoted degradation of 2,2-dibromo-3-cyanoacetamide while at the same time facilitates the base-catalyzed conversion thereof to 2,2-dibromomalonamide.

SMILES strings stand for the structures.

On to `NC(=O)C(Br)(Br)C(N)=O` [2,2-dibromomalonamide], for which the “stability relative to 2,2-dibromo-3-cyanoacetamide” value is at least 10 times.
